Experimental data published in patent US8450357B2, “Compositions comprising an aryl pyrazole and/or a formamidine, methods and uses thereof” (Merial Limited, priority 2008, dated 2013).
Where two headings read alike, the source gives them in different places.

Columns and labels:
Assay type in all cases: in vivo
fleas = assay: Efficacy of combination of fipronil and amitraz against fleas on dogs; details: topical
Description: A fipronil formulation (commercial product) was prepared and stored separately from amitraz. Amitraz was formulated with the same carrier. Both parts, fipronil and amitraz in solvent(s) were stored separately and applied simultaneously. Amounts applied were calculated to keep dose at 10% (w/v) each in final formulation and 10 mg/kg BW of actives in amount applied.
The amitraz and fipronil composition described in Example 10 were used in this study. […] Treatment was applied by parting the hair on the midline of the neck, between the base of the skull and the shoulder blades, and applying the formulation directly onto the skin.

[1] = test system: adult Rhipicephalus sanguineus ticks; assay: whole plant or invertebrate; details: for mortality at 6.25 ppm / mortality at 12.5 ppm / mortality at 25 ppm / mortality at 0.0016 ppm / mortality at 0.006 ppm / mortality at 0.025 ppm / mortality at 0.1 ppm / mortality at 0.4 ppm / mortality at 1.6 ppm: Rhipicephalus sanguineus; for Synergistic Ratio (EC50): EC50 alone divided by EC50 with Amitraz (12.5 ppm); for Synergistic Ratio (EC90): EC90 alone divided by EC90 with Amitraz (12.5 ppm)
Description: Dosages were serially diluted using this same formulation.

[2] = test system: adult Rhipicephalus sanguineus; assay: Tick motility petri dish assay with imaging system, amitraz and fipronil; details: for Geometric Mean of movement values for stimulated ticks: amitraz 0.32 ug/cm^2, fipronil serial dilutions 1.3-0.005 ug/cm^2; for motility of ticks over time: compound alone, compared to solvent control treated ticks
Description: An imaging system was used for the automated analysis of tick motility in response to amitraz and fipronil treatments to remove the subjective interpretation of manual test evaluation. The study was designed to evaluate the affect of amitraz and fipronil alone and in combination, as compared to a control, on the motility of ticks over time.
The motility of adult Rhipicephalus sanguineus was compared for amitraz-only, fipronil-only and the combination of fipronil and amitraz in a petri dish assay using the imaging system. The assay was run using a fixed dilution of amitraz (0.32 ug/cm^2), with serial dilutions of fipronil (1.3, 0.33, 0.08, 0.02, or 0.005 ug/cm^2) alone and in combination with the fixed dilution of amitraz. Six independent replications were conducted.
A plate holding four petri dishes was custom made for the imaging system. At each time point the plate holding four petri dishes was placed on the imaging system and evaluated for motility. The set up of the plate for each evaluation is illustrated below in Table 21.
For Dish A1, a volume of 625 μL of ethanol was used to treat the tops and 625 μL to treat the bottoms of the petri dish. All solutions were formulated in 100% ethanol. For Dish A2, a volume of 125 μL of the 25 ppm amitraz solution was used to treat the tops and 125 μL to treat the bottoms of the petri dish. For Dish B1, the top and bottom portions of the petri dishes were each treated with 500 μL of the 25 ppm solution of fipronil (serially diluted for each Plate 1-5) and 125 μL of the 25 ppm solution of amitraz. And for Dish B2, each of the top and bottom portions of the petri dishes were treated with 500 μL of the 25 ppm solution of fipronil (serially diluted for each Plate 1-5). After application of the corresponding solution to the petri dishes, the petri dishes were left open under a fan and allowed to dry for 1 hour. After drying, the dishes were infested with 10 adult Rhipicephalus sanguineus (supplied by Ecto Services, Inc. Henderson, N.C.). The ticks were left undisturbed for 1 hour before evaluation in the imaging system. Between evaluations ticks were maintained at approximately 21° C. and 60% RH.
After the initial hour, each Plate 1-5 was sequentially placed into the imaging system for evaluation. Image processing calculates the change in movement of the ticks between each image. The value generated is equal to the movement in each petri dish during the image time. The ticks in each individual petri dish were then stimulated to move by breathing/exhaling into the plate. After stimulation, the plates were placed back into the imaging system for another evaluation to determine if the treatment affected the tick's ability to move. Image capture was repeated as in the pre-stimulated evaluation.
Evaluations were made at 1, 4, 18, and 24 hours post infest (hpi) for 3 trials. For 3 trials the 4 hour evaluation was not done and for 3 trials the third evaluation was done at 21 to 22 hours. Raw data values were exported from the imaging system and comparative analysis of treatments over time was conducted.

[3] = 6 h, read-out: 6 hour % Mortality Rep 1
[4] = 6 h, read-out: 6 hour % Mortality Rep 2
[5] = 6 h, read-out: 6 hour Avg. % Mortality
[6] = 24 h, read-out: 24 hour % Mortality Rep 1
[7] = 24 h, read-out: 24 hour % Mortality Rep 2
[8] = 24 h, read-out: 24 hour Avg. % Mortality
[9] = 48 h, read-out: 48 hour % Mortality Rep 1
[10] = 48 h, read-out: 48 hour % Mortality Rep 2
[11] = 48 h, read-out: 48 hour Avg. % Mortality

In the case of `Cc1ccc(/N=C/N(C)/C=N/c2ccc(C)cc2C)c(C)c1` [Amitraz, amitraz], the Efficacy against fleas (fleas; 2 days after treatment) was 14.3%, the Efficacy against fleas (fleas; 16 days after treatment) was 12.4% and the Efficacy against fleas (fleas; 23 days after treatment) was 16.3%. For the same compound, the Efficacy against fleas (fleas; 30 days after treatment) was 20.2%, the Efficacy against fleas (fleas; 37 days after treatment) was 32.5% and the Efficacy against fleas (fleas; 44 days after treatment) was 25.9%. It also gave a mortality at 6.25 ppm [1, 3] of 0%, a mortality at 12.5 ppm [1, 3] of 0% and a mortality at 25 ppm [1, 3] of 0%. The mortality at 6.25 ppm [1, 4] was 0%, the mortality at 12.5 ppm [1, 4] was 0% and the mortality at 25 ppm [1, 4] was 0%. It also gave a mortality at 6.25 ppm [1, 5] of 0%, a mortality at 12.5 ppm [1, 5] of 0% and a mortality at 25 ppm [1, 5] of 0%. The mortality at 6.25 ppm [1, 6] was 0%, the mortality at 12.5 ppm [1, 6] was 0% and the mortality at 25 ppm [1, 6] was 0%. The mortality at 6.25 ppm [1, 7] was 0%, the mortality at 12.5 ppm [1, 7] was 0% and the mortality at 25 ppm [1, 7] was 0%. For the same compound, the mortality at 6.25 ppm [1, 8] was 0%, the mortality at 12.5 ppm [1, 8] was 0% and the mortality at 25 ppm [1, 8] was 0%. For the same compound, the mortality at 6.25 ppm [1, 9] was 0%, the mortality at 12.5 ppm [1, 9] was 0% and the mortality at 25 ppm [1, 9] was 10%. The mortality at 6.25 ppm [1, 10] was 0%, the mortality at 12.5 ppm [1, 10] was 0% and the mortality at 25 ppm [1, 10] was 10%. The mortality at 6.25 ppm [1, 11] was 0%, the mortality at 12.5 ppm [1, 11] was 0% and the mortality at 25 ppm [1, 11] was 10%. For the same compound, the “Geometric Mean of movement values for stimulated ticks” value (shortened to “Geometric Mean of movement values”) ([2]; 21-22 hours post infestation) was 30,300, the “Geometric Mean of movement values” value ([2]; 1 hours post infestation) was 56,900 and the “Geometric Mean of movement values” value ([2]; 4 hours post infestation) was 44,300. For the same compound, the “Geometric Mean of movement values” value ([2]; 18 hours post infestation) was 33,200, the “Geometric Mean of movement values” value ([2]; 24 hours post infestation) was 34,300 and the “motility of ticks over time” value [2] was “increase in motility”.

`N#Cc1nn(-c2c(Cl)cc(C(F)(F)F)cc2Cl)c(N)c1[S+]([O-])C(F)(F)F` (stereo not drawn) [fipronil, 5-amino-3-cyano-1-(2,6-dichloro-4-trifluoromethylphenyl)-4-trifluoromethylsulfinylpyrazole] showed an Efficacy against fleas (fleas; 2 days after treatment) of 100%, an Efficacy against fleas (fleas; 16 days after treatment) of 100% and an Efficacy against fleas (fleas; 23 days after treatment) of 100%. It also gave an Efficacy against fleas (fleas; 30 days after treatment) of 94.4%, an Efficacy against fleas (fleas; 37 days after treatment) of 63.4% and an Efficacy against fleas (fleas; 44 days after treatment) of 55.9%. The Efficacy against fleas (fleas; 51 days after treatment) was 74.7%, the “Synergistic Ratio (EC50)” value ([1]; 6 hour Eval) was 14.7 and the “Synergistic Ratio (EC90)” value ([1]; 6 hour Eval) was greater than 6.76. The “Synergistic Ratio (EC50)” value ([1]; 24 hour Eval) was 156.8, the “Synergistic Ratio (EC90)” value ([1]; 24 hour Eval) was greater than 156 and the “Synergistic Ratio (EC50)” value ([1]; 48 hour Eval) was 56.4. For the same compound, the “Synergistic Ratio (EC90)” value ([1]; 48 hour Eval) was 32.3, the mortality at 0.0016 ppm [1, 3] was 0% and the mortality at 0.006 ppm [1, 3] was 0%. For the same compound, the mortality at 0.025 ppm [1, 3] was 0%, the mortality at 0.1 ppm [1, 3] was 0% and the mortality at 0.4 ppm [1, 3] was 0%. It also gave a mortality at 1.6 ppm [1, 3] of 0%, a mortality at 6.25 ppm [1, 3] of 0% and a mortality at 25 ppm [1, 3] of 40%. The mortality at 0.0016 ppm [1, 4] was 0%, the mortality at 0.006 ppm [1, 4] was 0% and the mortality at 0.025 ppm [1, 4] was 0%. For the same compound, the mortality at 0.1 ppm [1, 4] was 0%, the mortality at 0.4 ppm [1, 4] was 0% and the mortality at 1.6 ppm [1, 4] was 0%. It also gave a mortality at 6.25 ppm [1, 4] of 20%, a mortality at 25 ppm [1, 4] of 60% and a mortality at 0.0016 ppm [1, 5] of 0%. The mortality at 0.006 ppm [1, 5] was 0%, the mortality at 0.025 ppm [1, 5] was 0% and the mortality at 0.1 ppm [1, 5] was 0%. For the same compound, the mortality at 0.4 ppm [1, 5] was 0%, the mortality at 1.6 ppm [1, 5] was 0% and the mortality at 6.25 ppm [1, 5] was 10%. It also gave a mortality at 25 ppm [1, 5] of 50%, a mortality at 0.0016 ppm [1, 6] of 0% and a mortality at 0.006 ppm [1, 6] of 0%. For the same compound, the mortality at 0.025 ppm [1, 6] was 0%, the mortality at 0.1 ppm [1, 6] was 0% and the mortality at 0.4 ppm [1, 6] was 0%. The mortality at 6.25 ppm [1, 6] was 90%, the mortality at 25 ppm [1, 6] was 80% and the mortality at 0.0016 ppm [1, 7] was 0%. It also gave a mortality at 0.006 ppm [1, 7] of 0%, a mortality at 0.025 ppm [1, 7] of 0% and a mortality at 0.1 ppm [1, 7] of 0%. For the same compound, the mortality at 0.4 ppm [1, 7] was 0%, the mortality at 1.6 ppm [1, 7] was 40% and the mortality at 6.25 ppm [1, 7] was 50%. It also gave a mortality at 25 ppm [1, 7] of 90%, a mortality at 0.0016 ppm [1, 8] of 0% and a mortality at 0.006 ppm [1, 8] of 0%. It also gave a mortality at 0.025 ppm [1, 8] of 0%, a mortality at 0.1 ppm [1, 8] of 0% and a mortality at 0.4 ppm [1, 8] of 0%. It also gave a mortality at 1.6 ppm [1, 8] of 30%, a mortality at 6.25 ppm [1, 8] of 70% and a mortality at 25 ppm [1, 8] of 85%. The mortality at 0.0016 ppm [1, 9] was 0%, the mortality at 0.006 ppm [1, 9] was 0% and the mortality at 0.025 ppm [1, 9] was 0%. It also gave a mortality at 0.1 ppm [1, 9] of 0%, a mortality at 0.4 ppm [1, 9] of 20% and a mortality at 1.6 ppm [1, 9] of 50%. It also gave a mortality at 6.25 ppm [1, 9] of 100%, a mortality at 25 ppm [1, 9] of 100% and a mortality at 0.0016 ppm [1, 10] of 0%. For the same compound, the mortality at 0.006 ppm [1, 10] was 0%, the mortality at 0.025 ppm [1, 10] was 0% and the mortality at 0.1 ppm [1, 10] was 0%. For the same compound, the mortality at 0.4 ppm [1, 10] was 20%, the mortality at 1.6 ppm [1, 10] was 60% and the mortality at 6.25 ppm [1, 10] was 100%. For the same compound, the mortality at 25 ppm [1, 10] was 100%, the mortality at 0.0016 ppm [1, 11] was 0% and the mortality at 0.006 ppm [1, 11] was 0%. For the same compound, the mortality at 0.025 ppm [1, 11] was 0%, the mortality at 0.1 ppm [1, 11] was 0% and the mortality at 0.4 ppm [1, 11] was 20%. It also gave a mortality at 1.6 ppm [1, 11] of 55%, a mortality at 6.25 ppm [1, 11] of 100% and a mortality at 25 ppm [1, 11] of 100%. The “Geometric Mean of movement values” value ([2]; 21-22 hours post infestation) was 21,200, the “Geometric Mean of movement values” value ([2]; 1 hours post infestation) was 51,000 and the “Geometric Mean of movement values” value ([2]; 4 hours post infestation) was 29,000. For the same compound, the “Geometric Mean of movement values” value ([2]; 18 hours post infestation) was 17,400, the “Geometric Mean of movement values” value ([2]; 24 hours post infestation) was 19,700 and the “motility of ticks over time” value [2] was “reduction in motility”.
